Patent US20120122860A1, “SOLID FORMS OF SULFONAMIDES AND AMINO ACIDS” (Plexxikon, Inc., priority 2009, published 2012)
pIC50: −log10 of the molar value.

Key:
Fms = Fms (Homo sapiens, UniProt P07333); assay: Kinase activity assay, Fms
Kdr = Kdr (Homo sapiens, UniProt P35968); assay: Kinase activity assay, Kdr
B-Raf V600E = B-Raf V600E (Homo sapiens, UniProt P15056, V600E); assay: Kinase activity assay, B-Raf V600E; type: biochemical; conditions: read-out: activity toward kinase B-Raf V600E, IC50
B-Raf V600E, sequence (P15056 whole entry V600E): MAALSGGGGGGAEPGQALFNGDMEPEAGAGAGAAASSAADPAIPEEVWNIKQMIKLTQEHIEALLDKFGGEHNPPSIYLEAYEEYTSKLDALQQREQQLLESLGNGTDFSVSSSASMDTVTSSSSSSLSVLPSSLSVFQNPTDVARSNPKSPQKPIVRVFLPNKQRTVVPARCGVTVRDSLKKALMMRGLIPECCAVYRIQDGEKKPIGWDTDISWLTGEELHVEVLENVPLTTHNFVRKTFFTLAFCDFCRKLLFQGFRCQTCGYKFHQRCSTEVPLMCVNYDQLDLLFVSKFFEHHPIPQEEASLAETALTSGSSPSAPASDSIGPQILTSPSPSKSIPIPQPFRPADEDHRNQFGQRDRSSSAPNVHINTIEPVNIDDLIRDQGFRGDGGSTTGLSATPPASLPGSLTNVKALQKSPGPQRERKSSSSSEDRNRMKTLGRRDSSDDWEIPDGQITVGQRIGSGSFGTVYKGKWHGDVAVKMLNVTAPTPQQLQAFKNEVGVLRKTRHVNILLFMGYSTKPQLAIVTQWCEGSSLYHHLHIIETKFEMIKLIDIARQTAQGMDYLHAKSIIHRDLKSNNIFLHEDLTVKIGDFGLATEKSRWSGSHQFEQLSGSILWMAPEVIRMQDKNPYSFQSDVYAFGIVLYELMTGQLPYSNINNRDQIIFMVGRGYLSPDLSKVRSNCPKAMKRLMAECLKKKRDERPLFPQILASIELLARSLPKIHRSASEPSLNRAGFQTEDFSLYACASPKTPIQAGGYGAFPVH

MAP4K4 = MAP4K4 (Homo sapiens, UniProt O95819); assay: Kinase activity assay, MAP4K4
MAP4K4, sequence (O95819 whole entry): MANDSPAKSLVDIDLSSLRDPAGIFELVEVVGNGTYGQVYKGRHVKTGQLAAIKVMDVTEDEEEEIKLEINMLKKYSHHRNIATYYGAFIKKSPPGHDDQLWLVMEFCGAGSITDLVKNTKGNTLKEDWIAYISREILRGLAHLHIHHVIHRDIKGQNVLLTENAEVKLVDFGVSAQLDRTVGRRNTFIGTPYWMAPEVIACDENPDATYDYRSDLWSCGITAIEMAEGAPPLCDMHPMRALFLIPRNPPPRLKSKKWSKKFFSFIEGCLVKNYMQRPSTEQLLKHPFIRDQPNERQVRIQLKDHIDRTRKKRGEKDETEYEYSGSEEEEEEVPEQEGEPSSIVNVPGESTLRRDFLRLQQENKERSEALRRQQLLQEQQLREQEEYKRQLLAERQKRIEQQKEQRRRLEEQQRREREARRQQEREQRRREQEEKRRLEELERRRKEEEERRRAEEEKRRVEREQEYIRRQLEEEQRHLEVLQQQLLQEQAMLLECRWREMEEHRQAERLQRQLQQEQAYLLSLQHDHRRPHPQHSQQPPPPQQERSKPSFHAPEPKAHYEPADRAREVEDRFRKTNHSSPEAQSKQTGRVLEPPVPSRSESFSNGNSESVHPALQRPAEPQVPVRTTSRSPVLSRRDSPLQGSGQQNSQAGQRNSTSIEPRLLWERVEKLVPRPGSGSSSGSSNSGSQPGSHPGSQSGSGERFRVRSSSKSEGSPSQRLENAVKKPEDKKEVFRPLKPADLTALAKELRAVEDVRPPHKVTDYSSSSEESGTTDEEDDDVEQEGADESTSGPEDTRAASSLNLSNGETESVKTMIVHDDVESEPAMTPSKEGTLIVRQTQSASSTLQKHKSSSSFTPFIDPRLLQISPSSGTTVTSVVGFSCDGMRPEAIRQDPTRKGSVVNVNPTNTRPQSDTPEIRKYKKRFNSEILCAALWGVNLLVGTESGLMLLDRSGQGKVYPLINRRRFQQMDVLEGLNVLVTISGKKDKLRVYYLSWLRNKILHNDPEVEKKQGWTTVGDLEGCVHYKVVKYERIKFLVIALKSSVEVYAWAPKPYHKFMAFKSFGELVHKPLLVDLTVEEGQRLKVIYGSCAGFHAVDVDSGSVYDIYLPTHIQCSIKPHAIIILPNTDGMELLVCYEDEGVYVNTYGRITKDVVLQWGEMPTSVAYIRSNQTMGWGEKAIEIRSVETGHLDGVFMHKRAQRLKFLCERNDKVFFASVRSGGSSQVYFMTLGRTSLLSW

Src = Src (Homo sapiens, UniProt P12931); assay: Kinase activity assay, Src
Src, sequence (P12931 whole entry): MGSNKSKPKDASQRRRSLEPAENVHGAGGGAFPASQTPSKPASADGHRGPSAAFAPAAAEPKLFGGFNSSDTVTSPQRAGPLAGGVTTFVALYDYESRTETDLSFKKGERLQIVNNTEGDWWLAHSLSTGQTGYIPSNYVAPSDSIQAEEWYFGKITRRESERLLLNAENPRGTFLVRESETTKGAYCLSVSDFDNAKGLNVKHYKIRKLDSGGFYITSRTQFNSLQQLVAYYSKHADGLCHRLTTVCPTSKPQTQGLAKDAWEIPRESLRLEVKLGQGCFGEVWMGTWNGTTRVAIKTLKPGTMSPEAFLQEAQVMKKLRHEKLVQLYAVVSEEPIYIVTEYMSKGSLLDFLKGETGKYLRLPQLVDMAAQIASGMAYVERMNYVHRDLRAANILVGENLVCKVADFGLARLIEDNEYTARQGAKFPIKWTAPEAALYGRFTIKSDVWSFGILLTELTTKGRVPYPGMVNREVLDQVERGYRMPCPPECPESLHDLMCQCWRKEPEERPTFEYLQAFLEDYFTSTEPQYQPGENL

TEC = target: T1, TEC (Homo sapiens, UniProt P42680); assay: Kinase activity assay, TEC
T1 sequence (P42680 1-631): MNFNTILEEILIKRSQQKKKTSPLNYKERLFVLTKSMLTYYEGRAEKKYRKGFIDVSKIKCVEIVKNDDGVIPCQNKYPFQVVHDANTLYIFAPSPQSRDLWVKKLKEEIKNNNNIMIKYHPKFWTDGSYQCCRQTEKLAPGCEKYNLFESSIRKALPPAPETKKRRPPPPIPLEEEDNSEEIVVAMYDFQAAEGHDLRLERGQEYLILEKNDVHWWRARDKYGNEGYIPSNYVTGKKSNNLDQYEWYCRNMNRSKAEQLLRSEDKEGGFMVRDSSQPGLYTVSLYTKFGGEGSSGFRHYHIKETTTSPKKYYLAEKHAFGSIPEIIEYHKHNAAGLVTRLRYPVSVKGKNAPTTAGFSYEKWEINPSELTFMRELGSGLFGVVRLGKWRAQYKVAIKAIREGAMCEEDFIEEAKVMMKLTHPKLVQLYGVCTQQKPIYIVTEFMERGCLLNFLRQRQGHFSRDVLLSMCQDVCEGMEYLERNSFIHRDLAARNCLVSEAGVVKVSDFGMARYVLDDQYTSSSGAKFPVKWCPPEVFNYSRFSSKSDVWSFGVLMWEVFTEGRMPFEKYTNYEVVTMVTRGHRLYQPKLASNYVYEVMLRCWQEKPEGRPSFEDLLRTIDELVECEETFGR

C-Raf = C-Raf (Homo sapiens, UniProt P04049); assay: Kinase activity assay, C-Raf
B-Raf = B-Raf (Homo sapiens, UniProt P15056); assay: Kinase activity assay, B-Raf; type: biochemical; conditions: read-out: activity toward kinase B-Raf, IC50
B-Raf, sequence (P15056 whole entry): as the sequence (P15056 whole entry V600E) above, with E600V counted along it

Kit = Kit (Homo sapiens, UniProt P10721); assay: Kinase activity assay, Kit
A-Raf = target: T2, A-Raf (Homo sapiens, UniProt P10398); assay: Kinase activity assay, A-Raf
T2 sequence (P10398 1-606): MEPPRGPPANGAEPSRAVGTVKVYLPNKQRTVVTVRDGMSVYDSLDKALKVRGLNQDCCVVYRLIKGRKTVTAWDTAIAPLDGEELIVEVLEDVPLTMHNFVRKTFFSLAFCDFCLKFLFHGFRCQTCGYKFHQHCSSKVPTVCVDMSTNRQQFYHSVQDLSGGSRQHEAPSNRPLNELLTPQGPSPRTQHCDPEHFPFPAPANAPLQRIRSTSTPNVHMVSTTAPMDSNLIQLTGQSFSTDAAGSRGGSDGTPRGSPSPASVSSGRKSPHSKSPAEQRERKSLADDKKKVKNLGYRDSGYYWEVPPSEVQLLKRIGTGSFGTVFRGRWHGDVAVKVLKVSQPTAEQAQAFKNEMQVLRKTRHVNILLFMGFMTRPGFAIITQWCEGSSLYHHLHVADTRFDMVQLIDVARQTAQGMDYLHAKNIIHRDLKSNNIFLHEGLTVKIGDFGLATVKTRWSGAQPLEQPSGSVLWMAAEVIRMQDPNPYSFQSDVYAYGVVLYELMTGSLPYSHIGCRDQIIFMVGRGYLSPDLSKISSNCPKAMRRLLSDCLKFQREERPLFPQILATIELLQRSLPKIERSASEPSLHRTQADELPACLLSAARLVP

Kdr, sequence (P35968 20-1356): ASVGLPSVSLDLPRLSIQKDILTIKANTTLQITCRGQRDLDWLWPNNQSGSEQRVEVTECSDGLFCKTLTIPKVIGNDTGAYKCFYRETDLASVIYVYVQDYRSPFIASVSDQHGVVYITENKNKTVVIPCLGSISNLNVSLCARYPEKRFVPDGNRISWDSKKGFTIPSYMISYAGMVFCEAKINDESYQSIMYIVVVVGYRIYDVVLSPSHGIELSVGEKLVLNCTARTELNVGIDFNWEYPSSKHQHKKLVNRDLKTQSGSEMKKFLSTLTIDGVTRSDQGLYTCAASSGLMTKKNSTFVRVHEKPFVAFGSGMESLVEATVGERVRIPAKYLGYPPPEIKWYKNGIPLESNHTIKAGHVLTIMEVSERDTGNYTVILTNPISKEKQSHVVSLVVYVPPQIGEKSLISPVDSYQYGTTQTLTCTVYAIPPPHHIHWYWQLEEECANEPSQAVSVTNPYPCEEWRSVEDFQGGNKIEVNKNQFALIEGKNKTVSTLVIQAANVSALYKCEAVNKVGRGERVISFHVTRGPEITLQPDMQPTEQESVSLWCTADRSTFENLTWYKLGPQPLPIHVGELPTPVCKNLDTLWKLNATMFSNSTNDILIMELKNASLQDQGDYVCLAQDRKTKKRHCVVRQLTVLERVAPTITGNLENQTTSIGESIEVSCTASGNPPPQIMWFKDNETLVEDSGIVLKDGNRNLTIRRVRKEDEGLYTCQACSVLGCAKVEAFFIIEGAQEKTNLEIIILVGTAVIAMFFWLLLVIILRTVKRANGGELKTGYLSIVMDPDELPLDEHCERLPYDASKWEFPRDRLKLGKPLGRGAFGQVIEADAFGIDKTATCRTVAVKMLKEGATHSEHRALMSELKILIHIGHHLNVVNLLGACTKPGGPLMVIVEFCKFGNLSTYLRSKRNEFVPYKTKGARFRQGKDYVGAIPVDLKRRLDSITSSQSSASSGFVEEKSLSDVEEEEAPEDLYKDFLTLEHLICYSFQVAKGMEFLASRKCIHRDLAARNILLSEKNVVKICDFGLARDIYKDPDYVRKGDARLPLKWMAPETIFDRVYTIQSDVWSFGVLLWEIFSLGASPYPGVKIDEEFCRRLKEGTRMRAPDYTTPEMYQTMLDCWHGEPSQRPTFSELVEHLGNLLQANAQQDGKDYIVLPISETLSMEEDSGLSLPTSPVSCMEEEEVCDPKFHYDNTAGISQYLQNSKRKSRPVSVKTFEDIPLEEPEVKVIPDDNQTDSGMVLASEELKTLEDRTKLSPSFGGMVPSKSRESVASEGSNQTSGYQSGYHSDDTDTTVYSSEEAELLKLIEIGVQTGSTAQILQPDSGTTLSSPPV
Fms, sequence (P07333 20-972): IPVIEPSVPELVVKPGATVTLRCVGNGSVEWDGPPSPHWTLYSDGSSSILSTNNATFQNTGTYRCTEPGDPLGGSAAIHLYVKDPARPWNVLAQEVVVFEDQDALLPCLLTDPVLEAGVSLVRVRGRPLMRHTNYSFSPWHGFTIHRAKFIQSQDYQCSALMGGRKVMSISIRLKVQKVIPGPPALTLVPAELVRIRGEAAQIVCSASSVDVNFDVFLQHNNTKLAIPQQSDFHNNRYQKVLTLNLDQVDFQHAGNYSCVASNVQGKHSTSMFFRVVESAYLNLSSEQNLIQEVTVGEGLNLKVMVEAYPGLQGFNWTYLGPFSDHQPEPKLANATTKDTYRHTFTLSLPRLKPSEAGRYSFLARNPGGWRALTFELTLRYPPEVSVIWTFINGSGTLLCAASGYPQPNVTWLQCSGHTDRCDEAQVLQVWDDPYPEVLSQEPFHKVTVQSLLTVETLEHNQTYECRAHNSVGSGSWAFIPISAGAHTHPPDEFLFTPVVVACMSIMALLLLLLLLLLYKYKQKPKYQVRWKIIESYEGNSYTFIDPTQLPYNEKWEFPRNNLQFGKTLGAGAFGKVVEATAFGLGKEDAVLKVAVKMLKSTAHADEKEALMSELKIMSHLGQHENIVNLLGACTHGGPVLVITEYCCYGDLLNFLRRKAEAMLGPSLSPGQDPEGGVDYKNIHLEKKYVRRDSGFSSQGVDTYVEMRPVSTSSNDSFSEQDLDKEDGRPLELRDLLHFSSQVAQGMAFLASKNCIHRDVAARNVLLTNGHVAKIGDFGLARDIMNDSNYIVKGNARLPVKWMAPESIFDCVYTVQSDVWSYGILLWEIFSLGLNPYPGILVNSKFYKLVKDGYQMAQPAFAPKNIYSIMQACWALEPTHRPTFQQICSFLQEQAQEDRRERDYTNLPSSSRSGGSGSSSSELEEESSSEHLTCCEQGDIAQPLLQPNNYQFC

SMILES | pIC50 (Fms) | pIC50 (Kdr) | pIC50 (B-Raf V600E) | pIC50 (MAP4K4) | pIC50 (Src) | pIC50 (TEC) | pIC50 (C-Raf) | pIC50 (B-Raf) | pIC50 (Kit) | pIC50 (A-Raf)
CCCS(=O)(=O)Nc1ccc(F)c(C(=O)c2c[nH]c3ncc(CN4CCN(C)CC4)cc23)c1F [P-2257, Propane-1-sulfonic acid {2,4-difluoro-3-[5-(4-methyl-piperazin-1-ylmethyl)-1H-pyrrolo[2,3-b]pyridine-3-carbonyl]-phenyl}-amide] |  |  | ≥ 5.00 |  |  | ≥ 5.00 | ≥ 5.00 | ≥ 5.00 |  | ≥ 5.00
C#Cc1ccnc2[nH]cc(C(=O)c3c(F)ccc(NS(=O)(=O)CCC)c3F)c12 [P-2261, Propane-1-sulfonic acid [3-(4-ethynyl-1H-pyrrolo[2,3-b]pyridine-3-carbonyl)-2,4-difluoro-phenyl]-amide] |  | ≥ 5.00 | ≥ 5.00 |  | ≥ 5.00 | ≥ 5.00 | ≥ 5.00 | ≥ 5.00 |  | ≥ 5.00
CS(=O)(=O)Nc1ccc(F)c(C(=O)c2c[nH]c3nccc(C#N)c23)c1F [P-2292, N-[3-(4-Cyano-1H-pyrrolo[2,3-b]pyridine-3-carbonyl)-2,4-difluoro-phenyl]-methanesulfonamide] |  | ≥ 5.00 | ≥ 5.00 |  |  | ≥ 5.00 | ≥ 5.00 |  |  | ≥ 5.00
CCC(C)S(=O)(=O)Nc1ccc(F)c(C(=O)c2c[nH]c3ncc(Cl)cc23)c1F (stereo not drawn) [P-2310, Butane-2-sulfonic acid [3-(5-chloro-1H-pyrrolo[2,3-b]pyridine-3-carbonyl)-2,4-difluoro-phenyl]-amide] |  | ≥ 5.00 | ≥ 5.00 | ≥ 5.00 | ≥ 5.00 | ≥ 5.00 | ≥ 5.00 | ≥ 5.00 | ≥ 5.00 | 
COc1cnc2[nH]cc(C(=O)c3c(F)ccc(NS(=O)(=O)C4CCCCC4)c3F)c2c1 [P-2355, Cyclohexanesulfonic acid [2,4-difluoro-3-(5-methoxy-1H-pyrrolo[2,3-b]pyridine-3-carbonyl)-phenyl]-amide] |  | ≥ 5.00 | ≥ 5.00 | ≥ 5.00 | ≥ 5.00 | ≥ 5.00 | ≥ 5.00 | ≥ 5.00 | ≥ 5.00 | 
COc1cnc2[nH]cc(C(=O)c3c(F)ccc(NS(=O)(=O)C4CCCC4)c3F)c2c1 [P-2356, Cyclopentanesulfonic acid [2,4-difluoro-3-(5-methoxy-1H-pyrrolo[2,3-b]pyridine-3-carbonyl)-phenyl]-amide] |  | ≥ 5.00 | ≥ 5.00 | ≥ 5.00 | ≥ 5.00 | ≥ 5.00 | ≥ 5.00 | ≥ 5.00 | ≥ 5.00 | 
O=C(c1c(F)ccc(NS(=O)(=O)C2CCCCC2)c1F)c1c[nH]c2ncc(Cl)cc12 [P-2357, Cyclohexanesulfonic acid [3-(5-chloro-1H-pyrrolo[2,3-b]pyridine-3-carbonyl)-2,4-difluoro-phenyl]-amide] |  | ≥ 5.00 | ≥ 5.00 | ≥ 5.00 | ≥ 5.00 | ≥ 5.00 | ≥ 5.00 | ≥ 5.00 | ≥ 5.00 | 
Cc1cnc2[nH]cc(C(=O)c3cc(NS(=O)(=O)C4CCCCC4)ccc3F)c2c1 [P-2443, Cyclohexanesulfonic acid [4-fluoro-3-(5-methyl-1H-pyrrolo[2,3-b]pyridine-3-carbonyl)-phenyl]-amide] | ≥ 5.00 | ≥ 5.00 |  | ≥ 5.00 |  | ≥ 5.00 |  |  | ≥ 5.00 | 
CS(=O)(=O)c1cccc(-c2cnc3[nH]cc(C(=O)c4cc(NS(=O)(=O)C5CCCC5)ccc4F)c3c2)c1 [P-2445, Cyclopentanesulfonic acid {4-fluoro-3-[5-(3-methanesulfonyl-phenyl)-1H-pyrrolo[2,3-b]pyridine-3-carbonyl]-phenyl}-amide] | ≥ 5.00 | ≥ 5.00 | ≥ 5.00 | ≥ 5.00 | ≥ 5.00 | ≥ 5.00 | ≥ 5.00 | ≥ 5.00 | ≥ 5.00 | 

Further lines, results first:

pIC50 (Fms) | pIC50 (Kdr) | pIC50 (B-Raf V600E) | pIC50 (MAP4K4) | pIC50 (Src) | pIC50 (TEC) | pIC50 (C-Raf) | pIC50 (B-Raf) | pIC50 (Kit) | pIC50 (A-Raf) | SMILES
≥ 5.00 | ≥ 5.00 | ≥ 5.00 | ≥ 5.00 | ≥ 5.00 | ≥ 5.00 | ≥ 5.00 | ≥ 5.00 | ≥ 5.00 |  | O=C(c1c(F)ccc(NS(=O)(=O)c2c(F)cccc2F)c1F)c1c[nH]c2ncc(Cl)cc12 [P-2003, N-[3-(5-Chloro-1H-pyrrolo[2,3-b]pyridine-3-carbonyl)-2,4-difluoro-phenyl]-2,6-difluoro-benzenesulfonamide]
 | ≥ 5.00 | ≥ 5.00 | ≥ 5.00 | ≥ 5.00 | ≥ 5.00 | ≥ 5.00 | ≥ 5.00 | ≥ 5.00 |  | N#Cc1cnc2[nH]cc(C(=O)c3c(F)ccc(NS(=O)(=O)c4ccc(F)cc4F)c3F)c2c1 [P-2030, N-[3-(5-Cyano-1H-pyrrolo[2,3-b]pyridine-3-carbonyl)-2,4-difluoro-phenyl]-2,4-difluoro-benzenesulfonamide]
 | ≥ 5.00 | ≥ 5.00 | ≥ 5.00 | ≥ 5.00 | ≥ 5.00 | ≥ 5.00 | ≥ 5.00 | ≥ 5.00 |  | COc1ccnc2[nH]cc(C(=O)c3c(F)ccc(NS(=O)(=O)c4c(F)cccc4F)c3F)c12 [P-2031, N-[2,4-Difluoro-3-(4-methoxy-1H-pyrrolo[2,3-b]pyridine-3-carbonyl)-phenyl]-2,6-difluoro-benzenesulfonamide]
 |  | ≥ 5.00 |  | ≥ 5.00 | ≥ 5.00 | ≥ 5.00 | ≥ 5.00 | ≥ 5.00 | ≥ 5.00 | N#Cc1cnc2[nH]cc(C(=O)c3c(F)ccc(NS(=O)(=O)c4ccccc4)c3F)c2c1 [P-2046, N-[3-(5-Cyano-1H-pyrrolo[2,3-b]pyridine-3-carbonyl)-2,4-difluoro-phenyl]-benzenesulfonamide]
 |  | ≥ 5.00 |  | ≥ 5.00 | ≥ 5.00 | ≥ 5.00 | ≥ 5.00 | ≥ 5.00 | ≥ 5.00 | COc1ccnc2[nH]cc(C(=O)c3c(F)ccc(NS(=O)(=O)c4ccc(C(F)(F)F)cc4)c3F)c12 [P-2047, N-[2,4-Difluoro-3-(4-methoxy-1H-pyrrolo[2,3-b]pyridine-3-carbonyl)-phenyl]-4-trifluoromethyl-benzenesulfonamide]
 | ≥ 5.00 | ≥ 5.00 |  |  | ≥ 5.00 | ≥ 5.00 | ≥ 5.00 |  | ≥ 5.00 | CCCS(=O)(=O)Nc1ccc(F)c(C(=O)c2c[nH]c3ncc(CCCN4CCCC4)cc23)c1F [P-2248, Propane-1-sulfonic acid {2,4-difluoro-3-[5-(3-pyrrolidin-1-yl-propyl)-1H-pyrrolo[2,3-b]pyridine-3-carbonyl]-phenyl}-amide]
 | ≥ 5.00 | ≥ 5.00 |  |  | ≥ 5.00 | ≥ 5.00 | ≥ 5.00 |  | ≥ 5.00 | CCCS(=O)(=O)Nc1ccc(F)c(C(=O)c2c[nH]c3ncc(CO)cc23)c1F [P-2250, Propane-1-sulfonic acid [2,4-difluoro-3-(5-hydroxymethyl-1H-pyrrolo[2,3-b]pyridine-3-carbonyl)-phenyl]-amide]
